Test results as given in US10231453B2, “5-substituted imidazole derivatives” (BAYER CROPSCIENCE AKTIENGESELLSCHAFT, priority 2015, dated 2019).
Where two headings read alike, the source gives them in different places.

Key:
[1] = tested on: Alternaria brassicae; experiment: In vivo preventive test on Alternaria brassicae (leaf spot on radish), Examples A and R1
[2] = Measurement of LogP values by HPLC on reversed phase columns (EEC directive 79/831 Annex V.A8); assay type: physicochemical; details: method [a]: LC-UV, acidic range, 0.1% formic acid in water and acetonitrile as eluent; Table 1
Description: Measurement of Log P values was performed as outlined above.

[3] = tested on: Puccinia recondita; experiment: In vivo preventive test on Puccinia recondita (brown rust on wheat), Examples C and R3; details: Puccinia recondita, 264 h, preventive spray, evaluated 11 days after inoculation
[4] = tested on: Septoria tritici; experiment: In vivo preventive test on Septoria tritici (leaf spot on wheat), Examples E, Q3 and R5; details: Zymoseptoria tritici, 576 h, preventive spray, evaluated 24 days after inoculation
[5] = tested on: Sphaerotheca fuliginea; experiment: In vivo preventive test on Sphaerotheca fuliginea (powdery mildew on cucurbits), Examples F and R6; details: Podosphaera fuliginea, 360 h, preventive spray, evaluated 15 days after inoculation
[6] = tested on: Uromyces appendiculatus; experiment: In vivo preventive test on Uromyces appendiculatus (bean rust), Examples G and R7; details: 264 h, preventive spray, evaluated 11 days after inoculation
[7] = tested on: Botrytis cinerea; experiment: In vivo preventive test on Botrytis cinerea (grey mould) on gherkin, Examples B, Q1 and R2; details: Botrytis cinerea, 500 ppm of active ingredient, preventive spray, evaluated 4 to 5 days after inoculation, read-out: efficacy
[8] = tested on: Pyrenophora teres; experiment: In vivo preventive test on Pyrenophora teres (net blotch on barley), Examples D, Q2 and R4; details: Pyrenophora teres, 336 h, 500 ppm of active ingredient, preventive spray, evaluated 14 days after inoculation, read-out: efficacy
[9] = tested on: Blumeria graminis fsp. hordei; experiment: In vivo preventive Blumeria test (barley), Example K; details: 168 h, 500 ppm of active ingredient, preventive spray, evaluated 7 days after inoculation, read-out: efficacy
Excerpt: After the spray coating has been dried, the plants are dusted with spores of Blumeria graminis fsp. hordei.

[10] = Alternaria brassicae, 144 h, 500 ppm of active ingredient, preventive spray, evaluated 6 days after inoculation, read-out: efficacy
[11] = 500 ppm of active ingredient, wheat, read-out: efficacy
[12] = 500 ppm of active ingredient, gherkin, read-out: efficacy
[13] = 500 ppm of active ingredient, bean, read-out: efficacy

Structure (SMILES)	chromatographic logP [2]	pest or weed control at 500 ppm [1, 10] [%]	pest or weed control at 500 ppm [3, 11] [%]	pest or weed control at 500 ppm [4, 11] [%]	pest or weed control at 500 ppm [5, 12] [%]	pest or weed control at 500 ppm [6, 13] [%]	pest or weed control at 500 ppm [7] [%]	pest or weed control at 500 ppm [8] [%]	further results
OC(Cc1ccc(Cl)cc1F)(Cn1ccc(Cl)c1)C1(Cl)CC1 (racemic) [reference compound]									Efficacy in % ([1]; Example R1, rate of application 100 ppm): 0%; Efficacy in % ([1]; Example R1, rate of application 500 ppm): 0%
Cc1cncn1CC(O)(Cc1ccccc1Cl)C1(Cl)CC1 (centres unmarked) [Example I-03]	1.72	80 to 89	80 to 89	90 to 100	90 to 100	90 to 100			pest or weed control at 100 ppm ([1]; Alternaria brassicae, 144 h, Example R1, rate of application 100 ppm, read-out: Efficacy in %): 0%; pest or weed control at 500 ppm ([1]; Alternaria brassicae, 144 h, Example R1, rate of application 500 ppm, read-out: Efficacy in %): 83%; pest or weed control at 100 ppm ([3]; Example R3, wheat, 100 ppm, read-out: Efficacy in %): 86%; pest or weed control at 500 ppm ([3]; Example R3, wheat, 500 ppm, read-out: Efficacy in %): 86%; pest or weed control at 100 ppm ([4]; Example R5, wheat, 100 ppm, read-out: Efficacy in %): 83%; pest or weed control at 500 ppm ([4]; Example R5, wheat, 500 ppm, read-out: Efficacy in %): 100%; pest or weed control at 100 ppm ([5]; Example R6, gherkin, 100 ppm, read-out: Efficacy in %): 85%; pest or weed control at 500 ppm ([5]; Example R6, gherkin, 500 ppm, read-out: Efficacy in %): 100%; pest or weed control at 100 ppm ([6]; Example R7, bean, 100 ppm, read-out: Efficacy in %): 81%; pest or weed control at 500 ppm ([6]; Example R7, bean, 500 ppm, read-out: Efficacy in %): 100%
Cc1cncn1CC(O)(C(F)c1ccccc1Cl)C1(Cl)CC1 (centres unmarked) [Example I-13]	1.75	70 to 79	80 to 89	90 to 100	90 to 100		80 to 89	80 to 89	
OC(Cc1ccccc1Cl)(Cn1cncc1C(F)(F)F)C1(Cl)CC1 (centres unmarked) [Example I-15]	3.63	90 to 100	80 to 89	90 to 100	90 to 100	90 to 100	70 to 79	90 to 100	
CC(=O)c1cncn1CC(O)(Cc1ccccc1Cl)C1(Cl)CC1 (centres unmarked) [Example I-19]		80 to 89	90 to 100	90 to 100	90 to 100			80 to 89	
OC(Cc1ccccc1Cl)(Cn1cncc1-c1cccs1)C1(Cl)CC1 (centres unmarked) [Example I-20]		80 to 89	80 to 89	80 to 89	90 to 100	90 to 100			
Cc1ccccc1CC(O)(Cn1cncc1C#N)C1(Cl)CC1 (centres unmarked) [Example I-54]		80 to 89	80 to 89	90 to 100	90 to 100	90 to 100	90 to 100	80 to 89	
N#Cc1cncn1CC(O)(Cc1ccnc(Cl)c1)C1(Cl)CC1 (centres unmarked) [Example I-62]	2.04		90 to 100	90 to 100	90 to 100	90 to 100		90 to 100	pest or weed control at 500 ppm [9]: 90 to 100%
OC(Cc1ccnc(Cl)c1)(Cn1cncc1Cl)C1(Cl)CC1 (centres unmarked) [Example I-75]	1.62		70 to 79	90 to 100	90 to 100	90 to 100	80 to 89	80 to 89	pest or weed control at 500 ppm [9]: 90 to 100%
N#Cc1cncn1CC(O)(Cc1ccccc1Cl)C1CC1 (centres unmarked) [Example I-80]	2.57		80 to 89	90 to 100	90 to 100	90 to 100		80 to 89	pest or weed control at 500 ppm [9]: 90 to 100%
CC(C)C(O)(Cc1ccccc1Cl)Cn1cncc1C#N (centres unmarked) [Example I-82]	2.67		90 to 100	90 to 100	90 to 100	90 to 100	90 to 100	80 to 89	
OC(Cc1ccc(F)c(F)c1)(Cn1cncc1Cl)C1(Cl)CC1 (centres unmarked) [Example I-110]	2.23		80 to 89	80 to 89	90 to 100	90 to 100	90 to 100	90 to 100	
